Data as given in publication PMC9112550, “Optimization of the antimicrobial peptide Bac7 by deep mutational scanning” (BMC Biology, 2022).
Entries after “also recorded” stand apart in the source; their conditions may differ. Where no end group is shown, it is not given here.

Assays:
CD-1 mice = assay: Maximum tolerated dose / in vivo toxicity; design: species or system mouse
Protocol: CD-1 mice (7 weeks old, 27–28 g female) were used (Charles River, France). These animals were housed for a week of acclimation period before the experiment in a protected area in the ‘Centre de Zootechnie de l’Université de Bourgogne’ (Biosafety level 2 facility) and fed ad libitum according to the current recommendations by the European Institute of Health. Housing took place in rooms where a 12-h/12 h light/dark cycle is applied, the temperature ranges from 18 to 21°C and the relative humidity from 45 to 65%. The animal facility is authorized by the French authorities (Agreement N° C 21 464 04 EA). […]
For animal experiments, Bac7PS was synthesized at Genscript as acetate salt and with a purity of 92%. […] First, the maximum tolerated dose (MTD) for the peptide was determined by testing different peptide doses in 8 groups with 5 animals per group. The peptide solution was administered once by intraperitoneal (IP) injection with a volume of between 94 and 240 μl (depending on the weight of the animal and the dosage) and the animals were monitored for 2 h following the injection, then 6 to 8 h later, and then once or twice a day, depending on the clinical status, up to 5 days post-injection. […] As endpoint, the wellbeing and survival rate, on a twice daily based evaluation for up to 3 days, was monitored.

HeLa cells = assay: In vitro toxicity assay (MTT), HeLa; assay type: cell-based, human
Protocol: HeLa epithelioid cervix carcinoma cells (originally purchased: 93021013, Sigma Aldrich) and HEK 293 human embryonic kidney (originally purchased: 85120602, Sigma Aldrich) were routinely cultivated in Dulbecco’s MEM high glucose (DMEM, with L-glutamine, without phenol red, 1-26P32, Bioconcept, Allschwil, CH), supplemented with 10% fetal bovine serum (heat inactivated, sterile filtered, F9665, Sigma Aldrich) and 100 IU ml^−1/100 μg ml^−1 Penicillin/streptomycin (4-01F00, Bioconcept) at 37°C with 5% CO2. Cells were split at a confluency of ≤ 90% (every 3 to 4 days) and maintained for max. 10 passages before a fresh aliquot of cells were seeded. […] The cell concentration was determined using a Countess 2 device (Thermo Fisher Scientific) and approx. 5000 (HeLa) or 25,000 (HEK 293) cells were seeded into wells of a 96-well plate (F-bottom, PS, 655180, Greiner) together with 100 μl DMEM. […] For each dilution series, the IC50 value was determined by computing a weighted n-parameters logistic regression using the “nplr” package in R (https://CRAN.R-project.org/package=nplr). […]

[1] = test system: HEK 293 cells transfected with a luciferase construct; assay: Whole cell translation inhibition assay; assay type: cell-based, human; conditions: HEK 293 whole-cell assay; 24 h incubation; luminescence; n = 1
Protocol: HEK293 cells were cultivated in DMEM medium supplemented with 10% fetal bovine serum and transfected with vector pRM-hFluc carrying a Fluc gene under constitutive CMV promotor control using Xfect™ Transfection Reagent (Takara, Japan) according to the manufacturer’s protocol. Transfected cells were seeded into a 24-well plate 6 h post-transfection and pre-incubated overnight prior to addition of peptides in the next morning. Following 24 h of incubation in the presence of the peptides, cells were lysed using Lysis Buffer (Promega) and the luminescence was measured in a white microtiter plate using the FLx800 luminometer (Bio-Tek Instruments, USA).

RRIRIRPPRLPRPRPRPYFMPRP [Bac7PS]
tolerability of a second administration (CD-1 mice; 40 mg kg^−1 IP, repeated 4 h after first dosing): does not influence the survival of mice; also recorded: tolerated | maximal dose at which all CD-1 mice survived (CD-1 mice; intraperitoneal, 3 days, single administration, 5 animals per group): 50 mg/kg | IC50 (HeLa cells; HeLa, MTT, 24 h, 37°C, triplicates): 521 µM | therapeutic index (TI), Toxicity/MIC (HeLa cells; IC50 HeLa divided by MIC50 from clinical isolates): 180 | concentration above which increased translational inhibition relative to Bac7_1-23 appeared [1]: above 200 μM
